In patent US9260425B2 (Genetech, Inc., priority 2011, dated 2016):
pKi: −log10 of the molar value.

Target: Pim-1 (Homo sapiens (Human), UniProt P11309)
Test: Pim kinase binding activity assay (Example 901), PIM-1 enzyme, Caliper microfluidic peptide phosphorylation
Type: biochemical
Details: 20 pM PIM-1, 10 μM ATP, 1 μM FAM-peptide, 90 minutes at room temperature
Summary of the method: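 PIM-1 at 20 pM phosphorylated 1 μM FAM-labelled Pim peptide with 10 μM ATP in HEPES pH 7.2, MgCl2, Tween 20 and DTT for 90 min at room temperature. EDTA stopped the reaction, and product and substrate were resolved by microfluidic electrophoresis (ex 488/em 530 nm). Ki was derived from substrate conversion.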

Sequence of Pim-1 (P11309 whole entry): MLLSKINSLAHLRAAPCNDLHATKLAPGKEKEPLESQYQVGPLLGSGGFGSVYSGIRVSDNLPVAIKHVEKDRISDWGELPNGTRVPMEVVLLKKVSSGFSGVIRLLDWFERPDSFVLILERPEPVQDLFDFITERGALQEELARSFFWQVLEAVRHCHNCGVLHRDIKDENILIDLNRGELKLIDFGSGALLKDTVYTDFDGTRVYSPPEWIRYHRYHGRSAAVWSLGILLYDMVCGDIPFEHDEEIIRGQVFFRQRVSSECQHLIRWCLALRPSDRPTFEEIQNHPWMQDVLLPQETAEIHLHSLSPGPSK

Compound	pKi
[O-][n+]1cc(C(F)(F)F)ccc1-c1n[nH]c2cnc(-c3cccnc3)cc12 [Example 354]	7.01
N[C@@H]1CCN(c2ccc(-c3n[nH]c4cnc(-c5cccnc5)cc34)cn2)C1 [Example 203, (R)-1-(5-(5-(pyridin-3-yl)-1H-pyrazolo[3,4-c]pyridin-3-yl)pyridin-2-yl)pyrrolidin-3-amine]	8.99
NCCCCNc1cccc(-c2n[nH]c3cnc(-c4cccnc4)cc23)n1 [Example 283, N1-(6-(5-(pyridin-3-yl)-1H-pyrazolo[3,4-c]pyridin-3-yl)pyridin-2-yl)butane-1,4-diamine]	9.59
CN1CCN(c2cc3c(-c4ccccn4)n[nH]c3cn2)CC1=O [Example 351, 1-methyl-4-(3-(pyridin-2-yl)-1H-pyrazolo[3,4-c]pyridin-5-yl)piperazin-2-one]	5.32
CN1CCN(c2cc3c(-c4ccccc4F)n[nH]c3cn2)CC1=O [Example 339, 4-(3-(2-fluorophenyl)-1H-pyrazolo[3,4-c]pyridin-5-yl)-1-methylpiperazin-2-one]	5.26
N[C@H]1CCCN(c2nc(-c3n[nH]c4cnc(-c5cccnc5)cc34)ccc2Br)C1 [Example 289, (S)-1-(3-bromo-6-(5-(pyridin-3-yl)-1H-pyrazolo[3,4-c]pyridin-3-yl)pyridin-2-yl)piperidin-3-amine]	10.77
NC1CCN(c2cc(-c3n[nH]c4cnc(-c5cccnc5)cc34)ccn2)CC1 [Example 160]	8.56
CCCCc1ccc(-c2n[nH]c3cnc(-c4cccnc4)cc23)nc1N1CCC[C@H](N)C1 [Example 362, (S)-1-(3-butyl-6-(5-(pyridin-3-yl)-1H-pyrazolo[3,4-c]pyridin-3-yl)pyridin-2-yl)piperidin-3-amine]	10.10
O=C1N(CC2CCNCC2)CCN1c1n[nH]c2cnc(-c3cccnc3)cc12 [Example 296, 1-(piperidin-4-ylmethyl)-3-(5-(pyridin-3-yl)-1H-pyrazolo[3,4-c]pyridin-3-yl)imidazolidin-2-one]	8.01
c1ccc(-c2n[nH]c3cnc(-c4cnccn4)cc23)cc1 [Example 214, 3-phenyl-5-(pyrazin-2-yl)-1H-pyrazolo[3,4-c]pyridine]	7.38
c1ccc(-c2n[nH]c3cnc(-c4cncnc4)cc23)cc1 [Example 150, 3-phenyl-5-(pyrimidin-5-yl)-1H-pyrazolo[3,4-c]pyridine]	6.68
N#CCc1n[nH]c2cnc(-c3cccnc3)cc12 [Example 134, 2-(5-(pyridin-3-yl)-1H-pyrazolo[3,4-c]pyridin-3-yl)acetonitrile]	6.08
N[C@H]1CCCN(Cc2n[nH]c3cnc(-c4cccnc4)cc23)C1 [Example 104, (S)-1-((5-(pyridin-3-yl)-1H-pyrazolo[3,4-c]pyridin-3-yl)methyl)piperidin-3-amine]	5.52
N[C@H]1CCCN(c2ccc(-c3n[nH]c4cnc(-c5cccnc5)cc34)cn2)C1 [Example 196, (S)-1-(5-(5-(pyridin-3-yl)-1H-pyrazolo[3,4-c]pyridin-3-yl)pyridin-2-yl)piperidin-3-amine]	9.11
c1cc(-c2n[nH]c3cnc(-n4ccnc4)cc23)nc(N2CCCCC2)c1 [Example 363, 5-(1H-imidazol-1-yl)-3-(6-(piperidin-1-yl)pyridin-2-yl)-1H-pyrazolo[3,4-c]pyridine]	8.62
c1cncc(-c2cc3c(-c4cnn(C5CCNCC5)c4)n[nH]c3cn2)c1 [Example 175, 3-(1-(piperidin-4-yl)-1H-pyrazol-4-yl)-5-(pyridin-3-yl)-1H-pyrazolo[3,4-c]pyridine]	9.52
c1cncc(-c2cc3c(N4CCCC4)n[nH]c3cn2)c1 [Example 252, 5-(pyridin-3-yl)-3-(pyrrolidin-1-yl)-1H-pyrazolo[3,4-c]pyridine]	8.00
N[C@@H]1CCCN(c2nc(-c3n[nH]c4cnc(-c5cccnc5)cc34)ccc2Cl)C1 [Example 266, (R)-1-(3-chloro-6-(5-(pyridin-3-yl)-1H-pyrazolo[3,4-c]pyridin-3-yl)pyridin-2-yl)piperidin-3-amine]	10.22
Cn1cc(-c2n[nH]c3cnc(-c4cncc(N5CCC(N)CC5)n4)cc23)cn1 [Example 221, 1-(6-(3-(1-methyl-1H-pyrazol-4-yl)-1H-pyrazolo[3,4-c]pyridin-5-yl)pyrazin-2-yl)piperidin-4-amine]	10.02
N[C@H]1CCCN(Cc2n[nH]c3cnc(-c4cn[nH]c4)cc23)C1 [Example 107, (S)-1-((5-(1H-pyrazol-4-yl)-1H-pyrazolo[3,4-c]pyridin-3-yl)methyl)piperidin-3-amine]	5.52
OC1CCN(c2nc(-c3n[nH]c4cnc(-c5cccnc5)cc34)ccc2Br)CC1 [Example 292, 1-(3-bromo-6-(5-(pyridin-3-yl)-1H-pyrazolo[3,4-c]pyridin-3-yl)pyridin-2-yl)piperidin-4-ol]	9.74
Cn1cc(-c2cc3c(-c4cccc(NCC(C)(C)O)n4)n[nH]c3cn2)cn1 [Example 297, 2-methyl-1-(6-(5-(1-methyl-1H-pyrazol-4-yl)-1H-pyrazolo[3,4-c]pyridin-3-yl)pyridin-2-ylamino)propan-2-ol]	10.47
Cn1cc(-c2cc3c(-c4cccc(C5CCNCC5)n4)n[nH]c3cn2)cn1 [Example 247, 5-(1-methyl-1H-pyrazol-4-yl)-3-(6-(piperidin-4-yl)pyridin-2-yl)-1H-pyrazolo[3,4-c]pyridine]	9.65
N[C@@H]1CCCN(c2cccc(-c3n[nH]c4cnc(-n5ccnc5)cc34)n2)C1 [Example 369, (R)-1-(6-(5-(1H-imidazol-1-yl)-1H-pyrazolo[3,4-c]pyridin-3-yl)pyridin-2-yl)piperidin-3-amine]	8.95

The remaining lines, values ahead:

pKi	Compound
10.68	COc1cncc(-c2cc3c(-c4cccc(N5CCNCC5)n4)n[nH]c3cn2)c1 [Example 436, 5-(5-methoxypyridin-3-yl)-3-(6-(piperazin-1-yl)pyridin-2-yl)-1H-pyrazolo[3,4-c]pyridine]
10.82	CCn1cncc(-c2cc3c(-c4cccc(N5CCNCC5)n4)n[nH]c3cn2)c1=O [Example 515, 3-ethyl-5-(3-(6-(piperazin-1-yl)pyridin-2-yl)-1H-pyrazolo[3,4-c]pyridin-5-yl)pyrimidin-4(3H)-one]
7.29	N#Cc1cc2c(-c3cccc(N4CCNCC4)n3)n[nH]c2cn1 [Example 400, 3-(6-(piperazin-1-yl)pyridin-2-yl)-1H-pyrazolo[3,4-c]pyridine-5-carbonitrile]
10.26	CCn1cc(-c2cc3c(-c4cccc(NC5CCCCNC5)n4)n[nH]c3cn2)cn1 (stereo not drawn) [Example 513, N-(6-(5-(1-ethyl-1H-pyrazol-4-yl)-1H-pyrazolo[3,4-c]pyridin-3-yl)pyridin-2-yl)azepan-3-amine]
10.51	CCn1cc(-c2cc3c(-c4cccc(N5CCC[C@H](N)C5)n4)n[nH]c3cn2)cn1 [Example 445, (S)-1-(6-(5-(1-ethyl-1H-pyrazol-4-yl)-1H-pyrazolo[3,4-c]pyridin-3-yl)pyridin-2-yl)piperidin-3-amine]
7.65	N#Cc1cc2c(-c3cccc(N4CCC[C@H](N)C4)n3)n[nH]c2cn1 [Example 399, (S)-3-(6-(3-aminopiperidin-1-yl)pyridin-2-yl)-1H-pyrazolo[3,4-c]pyridine-5-carbonitrile]
7.76	CCn1cc(-c2cc3c(-c4cc(CO)ccn4)n[nH]c3cn2)cn1 [Example 498, (2-(5-(1-ethyl-1H-pyrazol-4-yl)-1H-pyrazolo[3,4-c]pyridin-3-yl)pyridin-4-yl)methanol]
9.58	CCn1cc(-c2cc3c(-c4cccc(N5CCC[C@@](C)(O)C5)n4)n[nH]c3cn2)cn1 [Example 460, (R)-1-(6-(5-(1-ethyl-1H-pyrazol-4-yl)-1H-pyrazolo[3,4-c]pyridin-3-yl)pyridin-2-yl)-3-methylpiperidin-3-ol]
10.14	CCn1cc(-c2cc3c(-c4cccc(N5CCC[C@@H](N)CC5)n4)n[nH]c3cn2)cn1 [Example 471, (R)-1-(6-(5-(1-ethyl-1H-pyrazol-4-yl)-1H-pyrazolo[3,4-c]pyridin-3-yl)pyridin-2-yl)azepan-4-amine]
10.31	CCn1cc(-c2cc3c(-c4cc(C)cc(N5CCCNCC5)n4)n[nH]c3cn2)cn1 [Example 457, 3-(6-(1,4-diazepan-1-yl)-4-methylpyridin-2-yl)-5-(1-ethyl-1H-pyrazol-4-yl)-1H-pyrazolo[3,4-c]pyridine]
7.18	CCn1cc(-c2cc3c(-c4cc(C(F)(F)F)ccn4)n[nH]c3cn2)cn1 [Example 469, 5-(1-ethyl-1H-pyrazol-4-yl)-3-(4-(trifluoromethyl)pyridin-2-yl)-1H-pyrazolo[3,4-c]pyridine]
10.52	Cn1cc(-c2cc3c(-c4ccc(Br)c(N5C[C@@H](N)C[C@@H](F)C5)n4)n[nH]c3cn2)cn1 [Example 456, (3S,5R)-1-(3-bromo-6-(5-(1-methyl-1H-pyrazol-4-yl)-1H-pyrazolo[3,4-c]pyridin-3-yl)pyridin-2-yl)-5-fluoropiperidin-3-amine]
9.59	Cn1cc(-c2cc3c(-c4ccc(Br)c(N5CCN(CCS(C)(=O)=O)C(C)(C)C5)n4)n[nH]c3cn2)cn1 [Example 406, 3-(5-bromo-6-(3,3-dimethyl-4-(2-(methylsulfonyl)ethyl)piperazin-1-yl)pyridin-2-yl)-5-(1-methyl-1H-pyrazol-4-yl)-1H-pyrazolo[3,4-c]pyridine]
9.97	CCn1cc(-c2cc3c(-c4cc(C#N)cc(N5CCCNCC5)n4)n[nH]c3cn2)cn1 [Example 490, 2-(1,4-diazepan-1-yl)-6-(5-(1-ethyl-1H-pyrazol-4-yl)-1H-pyrazolo[3,4-c]pyridin-3-yl)isonicotinonitrile]
10.25	Cc1ccc(-c2n[nH]c3cnc(-c4cnn(C)c4)cc23)nc1N1C[C@@H](N)C[C@@H](F)C1 [Example 509, (3S,5R)-5-fluoro-1-(3-methyl-6-(5-(1-methyl-1H-pyrazol-4-yl)-1H-pyrazolo[3,4-c]pyridin-3-yl)pyridin-2-yl)piperidin-3-amine]
